Data from US11717499B2 (priority 2011, dated 2023).
“Also recorded” adds a separate entry of the source. Like-named read-outs stand apart in the source and are kept apart here. Marks after values point to notes of the source that are not given here.

How the values were obtained:
IL-1β = test: Immunoblot of IL-1β expression in placental tissue; format: in vivo; conditions: DMA rescued mice vs LPS-triggered PTB mice, p<0.01
Text: (§1) The probe was thoroughly cleaned after each sample.
(§2) Chemifluorescence was detected by exposure to an autoradiography film.

IL-6 = test: Immunoblot of IL-6 expression in placental tissue; format: in vivo; conditions: DMA rescued mice vs LPS-triggered PTB mice, p<0.05
Text: as §1, §2

LPS-triggered PTB = conditions: for Number of pups retained / Number of pups dropped: 50 mg/kg LPS
Protocol: Mice were then randomly assigned to the control group or one of five treatment groups. […] Additionally, a sixth group of four animals received i.p. injections of 0.5 ml PBS in lieu of LPS at the same time points and served as sham (Table 1).
After the injection at t=10 hours, mice were continually monitored; time of delivery of the first pup and number of pups dropped over time were recorded. […] All mice were sacrificed by carbon dioxide asphyxiation. The mice were autopsied at the end of experiments to confirm pregnancy and to determine the number of pups retained in utero. Placenta and uteri were harvested and stored.

TNF-α = test: Immunoblot of TNF-α expression in placental tissue; format: in vivo; conditions: DMA rescued mice vs LPS-triggered PTB mice, p<0.001
Text: as §1, §2

[1] = system: P450-dependent monooxygenase or phase II enzyme activities; conditions: rat; cited from earlier work
[2] = rats, cited from earlier work

SMILES	IL-1β expression in placentas (IL-1β)	IL-6 expression in placentas (IL-6)	Number of pups retained (LPS-triggered PTB; DMA 0.2 mg/kg)	Number of pups dropped (LPS-triggered PTB; DMA 0.2 mg/kg, n=47 pups)	Number of pups retained (LPS-triggered PTB; DMA 0.39 mg/kg)	Number of pups retained (LPS-triggered PTB; DMA 0.78 mg/kg)	Number of pups retained (LPS-triggered PTB; DMA 1.56 mg/kg)	Number of pups dropped (LPS-triggered PTB; DMA 1.56 mg/kg, n=47 pups)	Number of pups retained (LPS-triggered PTB; DMA 3.1 mg/kg)	Number of pups dropped (LPS-triggered PTB; DMA 3.1 mg/kg, n=52 pups)	Prevention of PTB (LPS-triggered PTB; highest doses of DMA, 3.1 and 1.56 mg/kg) [%]	TNF-α expression in placentas (TNF-α)	Induction of hepatic monooxygenases [1]	Plasma level ([2]; after 24 hours)	Plasma half life [2]
CC(=O)N(C)C [DMA, N,N-dimethylacetamide]	significantly reduced; also recorded: suppressed	suppressed	35	12	41	69	47	0***	52	0***	100	suppressed			
CNC(C)=O [MMA, N-monomethylacetamide]													did not induce any hepatic monooxygenases	a significant amount of MMA was still present	about 2.2 hours
